Molecules are shown by their SMILES.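 Each compound was tested at five concentrations against cells in 96-well plates for 48 hours. GI50 is the concentration that inhibits growth by half. The concentration for full growth arrest is given as TGI.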 Where only a bound is given, the exact number is not on record here.

Some test systems named below: OVCAR-3 ovarian; SK-MEL-2 melanoma; HL-60(TB) leukemia; UO-31 renal; SNB-19 CNS; SK-MEL-5 melanoma; NCI-H23 lung; HOP-62 NSCLC; HOP-92 NSCLC; MALME-3M melanoma.
Assay in all cases: inhibition of tumour cell growth, NCI panel, 48 h

As to `O=C1N=C(c2ccccc2)OC1C(=O)c1ccccc1` (stereo unspecified), the TGI with OVCAR-3 ovarian, in the experiment with SK-MEL-2 melanoma, with HL-60(TB) leukemia, in the experiment with UO-31 renal, with SNB-19 CNS and with SK-MEL-5 melanoma was over 100 µM in each case. The TGI in the experiment on NCI-H23 lung and with HOP-62 NSCLC was over 100 µM each time.

For the compound `Cc1ccc(S(=O)(=O)/N=c2\ssc(Nc3ccccc3)c2Cl)cc1`, the GI50 in the experiment on OVCAR-3 ovarian is 6.08 µM; in the experiment on SK-MEL-2 melanoma, 18.3 µM; with HL-60(TB) leukemia, 15.5 µM; in the experiment on UO-31 renal, 21.3 µM; in the experiment with SNB-19 CNS, 12.8 µM; in the experiment with SK-MEL-5 melanoma, 6.2 µM. For the same compound, the GI50 in the experiment with NCI-H23 lung is 11 µM; with HOP-62 NSCLC, 23.6 µM; in the experiment with HOP-92 NSCLC it was 7.43 µM. Moreover, the TGI is 20.2 µM in the experiment on OVCAR-3 ovarian; over 50 µM in the experiment with SK-MEL-2 melanoma; over 50 µM with HL-60(TB) leukemia; over 50 µM with UO-31 renal; over 50 µM in the experiment with SNB-19 CNS; 12.4 µM in the experiment on SK-MEL-5 melanoma. For the same compound, the values for the TGI with NCI-H23 lung, in the experiment on HOP-62 NSCLC and in the experiment on HOP-92 NSCLC were 27.1 µM, over 50 µM and over 50 µM, respectively.

As for `Cc1n[nH]c(=S)n1/N=C/c1ccc(F)c(Oc2ccccc2)c1`, the GI50 with OVCAR-3 ovarian was 44.6 µM; with HL-60(TB) leukemia it was 48.6 µM; in the experiment with UO-31 renal, 50 µM; with SNB-19 CNS, 55.9 µM; in the experiment on SK-MEL-5 melanoma, 16.1 µM; in the experiment with NCI-H23 lung, 42.2 µM. Moreover, the GI50 with HOP-62 NSCLC was 49.4 µM; in the experiment on MALME-3M melanoma it was 65.7 µM; in the experiment on HOP-92 NSCLC, 63.3 µM. Also, the TGI with OVCAR-3 ovarian was over 100 µM; in the experiment on HL-60(TB) leukemia, over 100 µM; with UO-31 renal, over 100 µM; in the experiment with SNB-19 CNS, over 100 µM; in the experiment with SK-MEL-5 melanoma, 33.4 µM; in the experiment with NCI-H23 lung, over 100 µM. In addition, the TGI in the experiment on HOP-62 NSCLC, in the experiment on MALME-3M melanoma and in the experiment with HOP-92 NSCLC was over 100 µM throughout.

As to `Cc1oc2c(C)c(O)c3c(c2c1C1(C)OCCO1)C(=O)C=C(Cl)C3=O`, the TGI in the experiment on OVCAR-3 ovarian, with SK-MEL-2 melanoma, in the experiment with HL-60(TB) leukemia, in the experiment on UO-31 renal, in the experiment on SNB-19 CNS and with SK-MEL-5 melanoma was over 100 µM each time. The TGI in the experiment on NCI-H23 lung, with HOP-62 NSCLC and in the experiment on HOP-92 NSCLC was over 100 µM throughout.

`Nc1ncnc2c1nc(-c1ccccc1)n2C1OC(CO)C(O)C1O` (stereo unspecified): the TGI with OVCAR-3 ovarian, with SK-MEL-2 melanoma, in the experiment with HL-60(TB) leukemia, with UO-31 renal, with SNB-19 CNS and in the experiment with SK-MEL-5 melanoma was over 100 µM each time. Also, the TGI in the experiment with NCI-H23 lung, in the experiment with HOP-62 NSCLC and in the experiment on HOP-92 NSCLC was over 100 µM throughout.

In the case of `O=C(/C=C\c1cccc2ccccc12)c1cccs1`, the TGI with OVCAR-3 ovarian came to 23.7 µM; with HL-60(TB) leukemia it was 15.6 µM; in the experiment with UO-31 renal it was 25.6 µM; with SNB-19 CNS, 25.3 µM; in the experiment with SK-MEL-5 melanoma it was 26.1 µM; with NCI-H23 lung it was 34.8 µM. Moreover, the TGI was found to be 41.5 µM in the experiment with HOP-62 NSCLC, 25.1 µM with MALME-3M melanoma and 25.8 µM in the experiment on HOP-92 NSCLC.

For `COC(=O)/C(C#N)=C1\CCC(O)N1C` (stereo unspecified), the TGI in the experiment with OVCAR-3 ovarian, in the experiment with SK-MEL-2 melanoma, with HL-60(TB) leukemia, with UO-31 renal, in the experiment with SNB-19 CNS and in the experiment on NCI-H23 lung was over 100 µM in each case. For the same compound, the TGI in the experiment with HOP-62 NSCLC and in the experiment on MALME-3M melanoma was over 100 µM in each case.

Consider `Nc1ncnc(NC2C=C(CO)C(O)C2O)c1[N+](=O)[O-]` (stereo unspecified), for which the TGI with OVCAR-3 ovarian, with SK-MEL-2 melanoma, in the experiment with HL-60(TB) leukemia, in the experiment on UO-31 renal, with SNB-19 CNS and with SK-MEL-5 melanoma was over 100 µM throughout. Besides, the TGI in the experiment with NCI-H23 lung and with HOP-62 NSCLC was over 100 µM in each case.

With `O=C1OCc2c1cc(F)cc2[N+](=O)[O-]`, the GI50 with OVCAR-3 ovarian, with SK-MEL-2 melanoma, with HL-60(TB) leukemia, in the experiment with UO-31 renal, in the experiment on SNB-19 CNS and in the experiment with SK-MEL-5 melanoma was over 100 µM throughout. Also, the figures for the GI50 in the experiment on NCI-H23 lung, in the experiment with HOP-62 NSCLC and in the experiment on MALME-3M melanoma were over 100 µM, over 100 µM and 26.8 µM, respectively. Moreover, the TGI with OVCAR-3 ovarian, with SK-MEL-2 melanoma, with HL-60(TB) leukemia, in the experiment with UO-31 renal, with SNB-19 CNS and in the experiment on SK-MEL-5 melanoma was over 100 µM in each case. In addition, the TGI in the experiment on NCI-H23 lung was over 100 µM; in the experiment on HOP-62 NSCLC, over 100 µM; in the experiment on MALME-3M melanoma it was 69.6 µM.

On to `COC(=O)C(=O)C(C(=O)C(=O)Nc1ccc(Cl)cc1C)c1nc2ccc(C(=O)c3ccccc3)cc2[nH]c1=O` (stereo unspecified), for which the TGI in the experiment on OVCAR-3 ovarian, in the experiment on SK-MEL-2 melanoma, with HL-60(TB) leukemia, in the experiment with UO-31 renal, in the experiment on SNB-19 CNS and with NCI-H23 lung was over 100 µM throughout. For the same compound, the TGI in the experiment with HOP-62 NSCLC, in the experiment on MALME-3M melanoma and in the experiment on HOP-92 NSCLC was over 100 µM in each case.

Turning to `COc1cc2nc(Sc3c([N+](=O)[O-])ncn3C)[nH]c2cc1OC`, the TGI with OVCAR-3 ovarian was over 100 µM; in the experiment on UO-31 renal it was over 100 µM; in the experiment on SNB-19 CNS, over 100 µM; in the experiment on SK-MEL-5 melanoma it was 63.6 µM; in the experiment with NCI-H23 lung, over 100 µM; in the experiment with HOP-62 NSCLC, over 100 µM. The TGI in the experiment with MALME-3M melanoma was over 100 µM; in the experiment on HOP-92 NSCLC, 45 µM.

Consider `Cc1cc(C)c(O)c(Cc2cccc(Cc3cc(C)cc(C)c3O)c2O)c1`, for which the TGI in the experiment with OVCAR-3 ovarian, in the experiment with SK-MEL-2 melanoma, in the experiment with UO-31 renal, in the experiment on SNB-19 CNS, in the experiment on SK-MEL-5 melanoma and with NCI-H23 lung was over 100 µM each time. Further, the TGI in the experiment on HOP-62 NSCLC, in the experiment with MALME-3M melanoma and in the experiment with HOP-92 NSCLC was over 100 µM each time.
